Source: paper PMC10762035, “Molecular basis of human trace amine-associated receptor 1 activation” (Nature Communications, 2024)
Where “and” joins values, the source holds several entries; their conditions need not be identical. Equal values may be shown once.

Experiments:
hTA1 [1] = target: T1, hTA1 (Homo sapiens, UniProt Q96RJ0); settings: cited from earlier work
T1 construct: expressed in transfected cells; host or cells: HEK293T
T1 sequence (Q96RJ0 1-339): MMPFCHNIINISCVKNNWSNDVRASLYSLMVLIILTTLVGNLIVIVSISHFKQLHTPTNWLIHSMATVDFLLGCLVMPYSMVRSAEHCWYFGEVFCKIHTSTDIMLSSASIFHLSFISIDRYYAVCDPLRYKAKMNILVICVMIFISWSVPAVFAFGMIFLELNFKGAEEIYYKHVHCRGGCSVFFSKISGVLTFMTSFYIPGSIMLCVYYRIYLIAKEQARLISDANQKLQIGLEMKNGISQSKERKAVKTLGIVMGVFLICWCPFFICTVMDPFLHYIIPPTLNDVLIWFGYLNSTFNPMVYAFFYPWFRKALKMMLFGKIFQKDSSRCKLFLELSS

mTA1 [2] = settings: read-out: affinity; cited from earlier work
mTA1 [3] = settings: cited from earlier work
rTA1 = settings: cited from earlier work
hTA1 [4] = target: T1, hTA1; settings: antagonist; cited from earlier work
DRD4 S^5.43A = settings: S^5.43A mutation in DRD4; cited from earlier work
hTA1 [5] = target: T1, hTA1; experiment: Screen of 89 aminergic compounds at 10 µM, cAMP accumulation in HEK293T cells; assay type: cell-based; settings: 10 µM of compound; HEK293T; threshold log2-fold change of 2;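 note: HEK293T cells co-transfected with hTA1 and GloSensor cAMP reporter, cAMP accumulation detected by luminescence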
hTA1 [6] = target: T1, hTA1; experiment: GloSensor cAMP accumulation assay, concentration response, wild-type hTA1 in transfected HEK293T cells; assay type: cell-based; settings: log[Compound], replicate wells;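 note: luminescence read after 30 min compound exposure at room temperature in cells preloaded with D-Luciferin, reflecting Gs-driven cAMP rise, efficacy scaled to the maximal β-PEA response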

| Structure (SMILES) | increase of signal over DMSO-treated controls (hTA1 activation) (hTA1 [5]) [fold] | Normalized Luminescence Counts for WT hTA1 (hTA1 [6]; M = -5) | Normalized Luminescence Counts for WT hTA1 (hTA1 [6]; M = -5.522) | Normalized Luminescence Counts for WT hTA1 (hTA1 [6]; M = -6) | Normalized Luminescence Counts for WT hTA1 (hTA1 [6]; M = -6.522) | Normalized Luminescence Counts for WT hTA1 (hTA1 [6]; M = -7) | Normalized Luminescence Counts for WT hTA1 (hTA1 [6]; M = -7.522) | Normalized Luminescence Counts for WT hTA1 (hTA1 [6]; M = -8) | Normalized Luminescence Counts for WT hTA1 (hTA1 [6]; M = -8.522) | Normalized Luminescence Counts for WT hTA1 (hTA1 [6]; M = -9) | Normalized Luminescence Counts for WT hTA1 (hTA1 [6]; M = -9.522) | Normalized Luminescence Counts for WT hTA1 (hTA1 [6]; M = -10) | Normalized Luminescence Counts for WT hTA1 (hTA1 [6]; M = -10.522) | Normalized Luminescence Counts for WT hTA1 (hTA1 [6]; M = -11) | Normalized Luminescence Counts for WT hTA1 (hTA1 [6]; M = -11.522) | Normalized Luminescence Counts for WT hTA1 (hTA1 [6]; M = -12) | Normalized Luminescence Counts for WT hTA1 (hTA1 [6]; M = -12.522) | other results |
| --- | --- | --- | --- | --- | --- | --- | --- | --- | --- | --- | --- | --- | --- | --- | --- | --- | --- | --- |
| CCOc1cccc(NC(=O)c2ccc(N3CCCC3)c(C(F)(F)F)c2)c1 [EPPTB] | – | – | – | – | – | – | – | – | – | – | – | – | – | – | – | – | – | binding to hTA1 (hTA1 [1]): does not appear to bind hTA1; Ki (mTA1 [2]): ~1 nM |
| N#Cc1c(C(F)(F)F)cc(-c2ccc(Cl)cc2)nc1SCC(=O)Nc1ncccn1 [RTI-7470-44] | – | – | – | – | – | – | – | – | – | – | – | – | – | – | – | – | – | reduced potency relative to hTA1 (mTA1 [3]): ~ 140 fold; reduced potency relative to hTA1 (rTA1; rTA1): ~ 90 fold; IC50 (hTA1 [4]): ~8 nM |
| NCCc1ccc(O)c(O)c1 [dopamine] | – | – | – | – | – | – | – | – | – | – | – | – | – | – | – | – | – | lowered potency by mutation (DRD4 S^5.43A): 7 fold |
| CCN(CC)C(=O)[C@@H]1C=C2c3cccc4[nH]cc(c34)C[C@H]2N(C)C1 [LSD] | ≥ 4 | 23.2463 and 21.0198 and 23.6719 and 20.4035 and 14.0827 and 19.0998 | 8.12 and 8.709 and 6.057 and 5.51 and 6.34 and 6.182 | 3.405 and 1.833 (2×) and 1.7572 and 2.35 and 2.5473 | 0.7855 and 1.3421 and 1.375 and 0.5325 and 0.8881 and 0.6116 | -0.0003118 and 0.7527 and 0.5563 and 0.256 and -0.2575 and 0.2165 | -0.164 and -0.426 and 0.2944 and -0.4946 (2×) and -0.09953 | 0.7855 and 0.6873 and 0.03243 and 0.1375 and 0.6116 and -0.2575 | -0.2295 and 0.4253 and 0.09791 and 0.05849 and -0.2971 and 0.6511 | -0.8516 and -0.1968 and 0.1634 and 0.493 and -0.09953 and 0.2955 | -0.295 and -0.3605 and -0.426 and -0.1785 and -0.3761 and -0.06003 | -0.09854 and 0.2289 and -0.3605 and -0.4946 and -0.5736 and -0.6131 | -0.4587 (2×) and -0.1313 and -0.218 and -1.245 and 0.01898 | -0.09854 and 0.3598 and 0.6873 and -0.1785 and -0.09953 and 1.007 | 0.2289 and 1.08 and 0.3926 and 1.086 and 1.046 and -0.2971 | -0.4587 and 0.1634 and 0.4253 and 0.7696 and -0.2575 and 1.836 | 1.735 and 0.5236 and 0.2616 and 0.05849 and -0.218 and 0.3745 | – |
| CN1C[C@H](C(=O)N[C@]2(C)O[C@@]3(O)[C@@H]4CCCN4C(=O)[C@H](Cc4ccccc4)N3C2=O)C=C2c3cccc4[nH]cc(c34)C[C@H]21 [ergotamine] | ≥ 4 | 44.5775 and 42.7529 and 37.8036 | 33.1851 and 35.1808 and 34.0176 | 22.5339 and 18.3829 and 18.9303 | 13.3539 and 12.6012 and 11.6889 | 5.28 and 4.447 and 4.037 | 2.783 and 2.007 and 2.3948 | 1.311 and 0.7184 and 0.9351 | 1.095 and 0.9921 and 1.163 | 0.7184 and 0.3649 and 0.5816 | 0.2737 and 0.2167 and 0.1254 | 0.1482 and 0.4219 and 0.2395 | 0.1825 and 0.5018 and 0.1939 | 0.114 and 0.536 and 0.4333 | 0.6956 and 0.3649 and 0.8895 | 0.479 and 0.6728 and 0.4562 | 0.3991 and 0.593 and 0.5018 | – |
| C[C@H]1CNCCc2ccc(Cl)cc21 [lorcaserin] | ≥ 4 | 36.902 and 34.0112 and 1.008 and 64.4771 and 65.1158 and 60.8849 | 12.6245 and 12.4103 and 0.5526 and 38.1001 and 37.3361 and 35.7852 | 4.327 and 4.728 and 0.4991 and 15.3153 and 15.7258 and 16.125 | 2.1854 and 0.9809 and 0.8203 and 4.949 and 4.904 and 5.611 | 0.4723 and 0.2314 and 1.222 and 2.349 and 1.654 and 2.0983 | -0.3039 and -0.5448 and 0.6329 and 0.4676 and 0.5018 and 0.5816 | 0.7132 and 0.4188 and 1.757 and 0.2053 and 0.05702 and 0.536 | -0.06302 and 0.9006 and 0.8738 and 0.593 and 0.5702 (2×) | 0.2582 and -0.1433 and 0.5258 and 0.3193 and 0.2737 and 0.3877 | 0.2582 and -0.4913 and 0.7132 and 0.3877 and 0.2851 and 0.2965 | -0.06302 and -0.4378 and 0.6865 and 0.4904 and 0.2737 and 0.2851 | -0.5448 and -0.8928 and 1.141 and 0.1825 and 0.2281 and -0.06842 | 0.1511 and -0.08979 and 0.7668 and -0.1368 and -0.1254 and -0.1482 | 0.9809 and -0.009489 and 0.6329 and 0.3991 and 0.3421 and 0.2167 | 0.6865 and 0.6329 and 1.195 and 0.1825 and 0.0114 and -0.07983 | 0.4455 and 0.4723 and 1.141 and 0.03421 and 0.0114 and -0.114 | – |
| NCCc1c[nH]c2ccccc12 [tryptamine] | – | – | – | – | – | – | – | – | – | – | – | – | – | – | – | – | – | higher potency at rTA1 compared to hTA1 (rTA1; rTA1 vs hTA1): over 50 fold |
| CCCN1C[C@H](CSC)C[C@@H]2c3cccc4[nH]cc(c34)C[C@H]21 [pergolide] | ≥ 4 | 13.9149 and 11.9176 and 12.507 | 9.888 and 9.789 and 7.596 | 6.6135 and 5.238 and 5.4348 | 5.599 and 3.8632 and 6.122 | 3.11 and 1.735 and 0.9819 | 1.047 and 0.5563 and 0.1634 | 0.7855 and 0.1634 and 0.8182 | -0.0658 and 0.09791 and -0.0003118 | -0.426 and -0.3932 and -0.5242 | -0.8516 and -0.0003118 and -0.6224 | -0.3277 and 0.03243 and -0.5897 | -0.7206 and -0.2622 and 0.3598 | 0.3926 and 0.1634 and 0.4253 | 0.4253 and 1.047 and -0.2622 | 0.3271 and -0.09854 and 0.6218 | 0.5236 and 0.9492 and 0.2616 | – |
